Like-named read-outs stand apart in the source and are kept apart here.
Tested on: TGFβ signal
Experiment: TGFβ signal inhibitory activity, (SBE)4-Luc reporter in A549 cells (Test Examples 1A and 1B)
Format: cell-based, human
Settings: Homo sapiens
Outline: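 Stable A549 line carrying (SBE)4-Luc Smad3-binding reporter treated with compound plus TGFβ-1 (2 ng/ml) for 4 hr; luciferase read by chemiluminescence. Percent inhibition relative to TGFβ-only and untreated cells, tested at 3 µM and 10 µM, some also at 1 µM.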

[1] = A549, 3 µM, compounds of Reference Examples (Test Example 1B), read-out: TGFβ inhibition rate, %
[2] = A549, 10 µM, compounds of Reference Examples (Test Example 1B), read-out: TGFβ inhibition rate, %
[3] = A549, test compound 3 µM, Reference Examples, Table 1B, read-out: TGFβ inhibition rate, %
[4] = A549, test compound 10 µM, Reference Examples, Table 1B, read-out: TGFβ inhibition rate, %
[5] = A549, test compound 3 µM, TGFβ-1 2 ng/ml, 4 hr, Table 1A, read-out: TGFβ inhibition rate, %
[6] = A549, test compound 10 µM, TGFβ-1 2 ng/ml, 4 hr, Table 1A, read-out: TGFβ inhibition rate, %

SMILES: COc1cc2nccc(Oc3ccc(C)nc3-c3ccccn3)c2cc1OC [r261]
- inhibition at 3 µM [1]: 100%
- inhibition at 10 µM [2]: 100%

SMILES: COc1cc2c(Oc3ccc(C)cc3C(=O)c3ccccc3)ccnc2cc1OCC(O)CN1CCC(N2CCCC2)CC1 (stereo not drawn) [r155]
- inhibition at 3 µM [3]: 100%
- inhibition at 10 µM [4]: 100%

SMILES: COc1cc2nccc(Oc3cc4cccnc4nc3-c3ccccn3)c2cc1OC [r421]
- inhibition at 3 µM [1]: 94%
- inhibition at 10 µM [2]: 100%

SMILES: CC/C=C\CCOC(=O)c1ccccc1Oc1ccnc2cc(OC)c(OC)cc12 [Compound r100]
- inhibition at 3 µM [3]: 0%
- inhibition at 10 µM [4]: 82%

SMILES: Cc1cc(Oc2ccnc3cc(Cl)c(C(N)=O)cc23)c(-c2ccccn2)nc1C [Compound 146, 7-Chloro-4-(5,6-dimethyl-[2,2']bipyridinyl-3-yloxy)-quinoline-6-carboxylic acid amide]
- inhibition at 3 µM [5]: 54%
- inhibition at 10 µM [6]: 95%

SMILES: COc1cc2nccc(Oc3ccc4cc(Br)ccc4c3)c2cc1OC [r18]
- inhibition at 3 µM [3]: 15%
- inhibition at 10 µM [4]: 69%

SMILES: COc1cc2nccc(Oc3ccc(C)cc3C(=O)c3ccccc3)c2cc1OC [r72]
- inhibition at 3 µM (A549, read-out: TGFβ inhibition rate, %): 98%

SMILES: COc1cc2nccc(Oc3cc4cccnc4nc3-c3csc4ccccc34)c2cc1OC [Compound 91, 2-Benzo[b]thiophen-3-yl-3-(6,7-dimethoxy-quinolin-4-yloxy)-[1,8]naphthyridine]
- inhibition at 3 µM [5]: 97%
- inhibition at 10 µM [6]: 100%

SMILES: COc1cc2c(Oc3ccc(C)cc3C(=O)c3ccccc3)ccnc2cc1OCC1CO1 (stereo not drawn) [Compound r151]
- inhibition at 3 µM [3]: 95%
- inhibition at 10 µM [4]: 100%

SMILES: COc1cc2c(Oc3ccc(C)cc3C(=O)c3ccccc3)ccnc2cc1OCC(O)CN1CCC(N2CCCCC2)CC1 (stereo not drawn) [Compound r156]
- inhibition at 3 µM [3]: 99%
- inhibition at 10 µM [4]: 100%

SMILES: COc1cc2ncnc(Oc3cc(C)c(C)nc3-c3ccc(C)cn3)c2cc1OC [r437]
- inhibition at 3 µM [1]: 95%
- inhibition at 10 µM [2]: 100%

SMILES: COc1cc2c(Oc3cc(C)c(C)nc3-c3nc(C)c(C)s3)ccnc2cc1O [Compound r455]
- inhibition at 3 µM [1]: 76%
- inhibition at 10 µM [2]: 99%

SMILES: COc1cc2c(Oc3cc(C)c(C)nc3-c3cccc(C)n3)ccnc2cc1OCC(CO)CO [Compound r448]
- inhibition at 3 µM [1]: 70%
- inhibition at 10 µM [2]: 97%

SMILES: Cc1cc(Oc2ccnc3ccc(F)cc23)c(-c2ccccn2)nc1C [Compound 103, 3-(6-Fluoro-quinolin-4-yloxy)-5,6-dimethyl-[2,2']bipyridine]
- inhibition at 3 µM [5]: 99%
- inhibition at 10 µM [6]: 100%

SMILES: Cc1ccc(-c2ccc3nccc(Oc4cc(C)c(C)nc4-c4ccccn4)c3c2)cc1 [Compound 8, 5,6-Dimethyl-3-(6-p-tolyl-quinolin-4-yloxy)-[2,2']bipyridine]
- inhibition at 3 µM [5]: 60%
- inhibition at 10 µM [6]: 100%

SMILES: COc1cc2nccc(Oc3ccc(C)nc3/C=C/c3ccccc3)c2cc1OC [r216]
- inhibition at 3 µM [1]: 22%
- inhibition at 10 µM [2]: 73%

SMILES: COc1cc2nccc(Oc3cc(Cl)cnc3OC3CCCC3)c2cc1OC [r222]
- inhibition at 3 µM [1]: 44%
- inhibition at 10 µM [2]: 100%

SMILES: COc1cc2nccc(Sc3ccc4ccccc4n3)c2cc1OC [r420]
- inhibition at 3 µM [1]: 2%
- inhibition at 10 µM [2]: 62%

SMILES: CCCCC(CC)COC(=O)c1ccccc1Oc1ccnc2cc(OC)c(OC)cc12 (stereo not drawn) [Compound r101]
- inhibition at 3 µM [3]: 0%
- inhibition at 10 µM [4]: 64%

SMILES: COc1cc2nccc(Oc3cccc(C(=O)c4ccccc4)c3)c2cc1OC [r77]
- inhibition at 3 µM [3]: 0%
- inhibition at 10 µM [4]: 46%

SMILES: Cc1cc(Oc2ccnc3ccc(-c4ccsc4)cc23)c(-c2ccccn2)nc1C [Compound 163, 5,6-Dimethyl-3-(6-thiophen-3-yl-quinolin-4-yloxy)-[2,2']bipyridine]
- inhibition at 3 µM [5]: 92%
- inhibition at 10 µM [6]: 100%

SMILES: CCCOC(=O)c1cc2ccccc2cc1Oc1ccnc2cc(OCCCl)c(OC)cc12 [Compound r322]
- inhibition at 3 µM [1]: 50%
- inhibition at 10 µM [2]: 88%

SMILES: COc1cc2nccc(Oc3ccc(C)nc3-c3cccc(C(N)=O)c3)c2cc1OC [Compound r233]
- inhibition at 3 µM [1]: 98%
- inhibition at 10 µM [2]: 100%

SMILES: COc1cc2nccc(Oc3cc4ccccc4nc3Br)c2cc1OC [Compound r281, 4-(2-Bromo-quinolin-3-yloxy)-6,7-dimethoxy-quinoline]
- inhibition at 3 µM [1]: 88%
- inhibition at 10 µM [2]: 100%

SMILES: Cc1cc(Oc2ccnc3ccsc23)c(-c2ccccn2)nc1C [Compound 28, 5,6-Dimethyl-3-(thieno[3,2-b]pyridin-7-yloxy)-[2,2']bipyridine]
- inhibition at 1 µM (A549, test compound 1 µM, TGFβ-1 2 ng/ml, 4 hr, Table 1A, read-out: TGFβ inhibition rate, %): 96%
- inhibition at 3 µM [5]: 100%

SMILES: COc1cc2nccc(Oc3cc4cccnc4nc3C)c2cc1OC [Compound r310]
- inhibition at 3 µM [1]: 72%
- inhibition at 10 µM [2]: 97%

Reference: patent publication EP1724268A1, “COMPOUND HAVING TGF-BETA INHIBITORY ACTIVITY AND PHARMACEUTICAL COMPOSITION CONTAINING SAME” (KIRIN BEER KABUSHIKI KAISHA, priority 2004, dated 2005)
